Test system: HeLa cells
Assay: Transfection of pEGFP-C1 reporter plasmid into HeLa cells, GFP expression by flow cytometry
Format: cell-based, human
Conditions: HeLa cells 48 h after transfection with reporter plasmid, flow cytometry
Experimental: The corresponding cationic lipid (1 mM in methanol) were mixed in different proportions with DOPE (10 mg/mL in chloroform) and the organic solvent removed by evaporation in an oven (37° C.) overnight. The resultant thin films were then hydrated with PBS. The solutions were vortexed (10-20 s) and incubated at ambient temperature for 20 min. Plasmid DNA or siRNA solution (0.04 mg/mL in PBS or another isotonic solution) was subsequently added and the solution vortexed (10-20 s). The lipoplexes were incubated at room temperature for 20 min before being used.
Human HeLa cells were grown in RPMI supplemented with 4 mM glutamine, 10% FCS and 100 units/ml penicillin/streptomycin (RPMI-CM) until 80% confluence. HEK293 and B16F10 cells were grown in DMEM supplemented with 4 mM glutamine, 10% FCS and 100 units/ml penicillin/streptomycin (DMEM-CM) until 80% confluence. Cells were then suspended using trypsin/EDTA and counted. 2×10^4 cells in 150 μL of media per well were seeded in 96 well plates and incubated overnight. The day afterwards, the different lipoplex formulations were added. Each experiment was performed in quadruplicate, using Effectene® Transfection Reagent (Qiagen), Lipofectamine™ 2000 (Invitrogen) and Fugene (Roche) as positive controls and untreated cells as negative controls. After two days incubation at 37° C. and 5% CO2 (the change of media after transfection was not necessary), the green fluorescent protein (GFP) expression, as a consequence of transfecting the pEGFP-C1, was evidenced using a fluorescent microscope (Leica) and measured by flow cytometry. For the flow cytometry analysis, cells were washed twice with PBS, detached with trypsin/EDTA, harvested with 2% ferum bovine serum (FBS) in PBS, centrifuged and resuspended with 2% FBS in PBS and analyzed using a BD FACSaria flow cytometer. Transfection efficiency was measured as percentage of transfected cells.
Reagents that obtained greater than 50% transfection were also analyzed against HEK293 and B16F10 cell lines. Transfection results (+ percentages of transfection between 5-25%; ++ percentages of transfection between 25-50%; N.D. not determined). MTT toxicity assay results are indicated between brackets with 100% being cell viability of untreated cells.

Q: How did the “Transfection results (percentage of transfected cells), HeLa” value turn out when CCCCCCCCCCCCCCCCCC(=O)NCCN(CCNC(=O)CCCCCCCCCCCCCCCCC)C(=O)/C=C\C(=O)N[C@@H](CCCNC(=N)N)C(=O)N[C@@H](CCCNC(=N)N)C(N)=O.O=C(O)C(F)(F)F.O=C(O)C(F)(F)F [Compound A2-Sp2-S] was run?
A: Its value is “++ (percentages of transfection between 25-50%)”.

Q: How did the “Transfection results (percentage of transfected cells), HeLa” value turn out when CCCCCCCCCCCCCCCCCCCC(=O)NCCN(CCNC(=O)CCCCCCCCCCCCCCCCCCC)C(=O)/C=C\C(=O)N[C@@H](CCCNC(=N)N)C(N)=O.O=C(O)C(F)(F)F [Compound A1-Sp2-A] was run?
A: The value was “+ (percentages of transfection between 5-25%)”.

Q: Which “Transfection results (percentage of transfected cells), HeLa” value does the source give for CCCCCCCCCCCCCCCCCC(=O)NCCN(CCNC(=O)CCCCCCCCCCCCCCCCC)C(=O)CCC(=O)N[C@@H](CCCNC(=N)N)C(=O)N[C@@H](CCCNC(=N)N)C(=O)N[C@@H](CCCNC(=N)N)C(N)=O.O=C(O)C(F)(F)F.O=C(O)C(F)(F)F.O=C(O)C(F)(F)F [Compound A3-Sp1-S] here?
A: Its value is “++ (percentages of transfection between 25-50%)”.

Q: How did the “Transfection results (percentage of transfected cells), HeLa” value turn out when CCCCCCCCCCCCCCCCCCCC(=O)NCCN(CCNC(=O)CCCCCCCCCCCCCCCCCCC)C(=O)CCC(=O)N[C@@H](CCCNC(=N)N)C(N)=O.O=C(O)C(F)(F)F [Compound A1-Sp1-A] was run?
A: Its value is “+ (percentages of transfection between 5-25%)”.

Q: Which “Transfection results (percentage of transfected cells), HeLa” value does the source give for CCCCCCCCCCCCCCCCCC(=O)NCCN(CCNC(=O)CCCCCCCCCCCCCCCCC)C(=O)/C=C\C(=O)N[C@@H](CCCNC(=N)N)C(=O)N[C@@H](CCCNC(=N)N)C(=O)N[C@@H](CCCNC(=N)N)C(N)=O.O=C(O)C(F)(F)F.O=C(O)C(F)(F)F.O=C(O)C(F)(F)F [Compound A3-Sp2-S] here?
A: Its value is “++ (percentages of transfection between 25-50%)”.

Q: Which “Transfection results (percentage of transfected cells), HeLa” value does the source give for CCCCCCCCCCCCCCCCCCCCCCCC(=O)NCCCN(CCCNC(=O)CCCCCCCCCCCCCCCCCCCCCCC)C(=O)CCC(=O)N[C@@H](CCCNC(=N)N)C(=O)N[C@@H](CCCNC(=N)N)C(N)=O.O=C(O)C(F)(F)F.O=C(O)C(F)(F)F [Compound A2-Sp3-L] here?
A: Its value is “+ (percentages of transfection between 5-25%)”.

Q: CCCCCCCC/C=C\CCCCCCCC(=O)NCCCN(CCCNC(=O)CCCCCCC/C=C\CCCCCCCC)C(=O)CCC(=O)N[C@@H](CCCNC(=N)N)C(=O)N[C@@H](CCCNC(=N)N)C(N)=O.O=C(O)C(F)(F)F.O=C(O)C(F)(F)F [Compound A2-Sp3-O] was tested. Which “Transfection results (percentage of transfected cells), HeLa” value did it give?
A: Its value is “++ (percentages of transfection between 25-50%)”.

Q: Which “Transfection results (percentage of transfected cells), HeLa” value does the source give for CCCCCCCCCCCCCCCC(=O)NCCCN(CCCNC(=O)CCCCCCCCCCCCCCC)C(=O)CCC(=O)N[C@@H](CCCNC(=N)N)C(=O)N[C@@H](CCCNC(=N)N)C(=O)N[C@@H](CCCNC(=N)N)C(N)=O.O=C(O)C(F)(F)F.O=C(O)C(F)(F)F.O=C(O)C(F)(F)F [Compound A3-Sp3-P] here?
A: Its value is “++ (percentages of transfection between 25-50%)”.

Q: CCCCCCCCCCCCCCCCCCCC(=O)NCCCN(CCCNC(=O)CCCCCCCCCCCCCCCCCCC)C(=O)/C=C\C(=O)N[C@@H](CCCNC(=N)N)C(=O)N[C@@H](CCCNC(=N)N)C(N)=O.O=C(O)C(F)(F)F.O=C(O)C(F)(F)F [Compound A2-Sp4-A] was tested. Which “Transfection results (percentage of transfected cells), HeLa” value did it give?
A: The value was “+ (percentages of transfection between 5-25%)”.

Q: CCCCCCCCCCCCCCCCCC(=O)NCCCN(CCCNC(=O)CCCCCCCCCCCCCCCCC)C(=O)/C=C\C(=O)N[C@@H](CCCNC(=N)N)C(=O)N[C@@H](CCCNC(=N)N)C(N)=O.O=C(O)C(F)(F)F.O=C(O)C(F)(F)F [Compound A2-Sp4-S] was tested. Which “Transfection results (percentage of transfected cells), HeLa” value did it give?
A: Its value is “+ (percentages of transfection between 5-25%)”.

Q: How did the “Transfection results (percentage of transfected cells), HeLa” value turn out when CCCCCCCC/C=C\CCCCCCCC(=O)NCCN(CCNC(=O)CCCCCCC/C=C\CCCCCCCC)C(=O)CCC(=O)N[C@@H](CCCNC(=N)N)C(=O)N[C@@H](CCCNC(=N)N)C(N)=O.O=C(O)C(F)(F)F.O=C(O)C(F)(F)F [Compound A2-Sp1-O] was run?
A: The value was “++ (percentages of transfection between 25-50%)”.

Q: For CCCCCCCCCCCCCCCCCCCC(=O)NCCCN(CCCNC(=O)CCCCCCCCCCCCCCCCCCC)C(=O)CCC(=O)N[C@@H](CCCNC(=N)N)C(=O)N[C@@H](CCCNC(=N)N)C(N)=O.O=C(O)C(F)(F)F.O=C(O)C(F)(F)F [Compound A2-Sp3-A], which “Transfection results (percentage of transfected cells), HeLa” value is on record?
A: Its value is “+ (percentages of transfection between 5-25%)”.

Q: Which “Transfection results (percentage of transfected cells), HeLa” value does the source give for CCCCCCCCCCCCCCCCCCCCCCCC(=O)NCCCN(CCCNC(=O)CCCCCCCCCCCCCCCCCCCCCCC)C(=O)CCC(=O)N[C@@H](CCCNC(=N)N)C(N)=O.O=C(O)C(F)(F)F [Compound A1-Sp3-L] here?
A: Its value is “+ (percentages of transfection between 5-25%)”.

Q: For CCCCCCCC/C=C\CCCCCCCC(=O)NCCN(CCNC(=O)CCCCCCC/C=C\CCCCCCCC)C(=O)/C=C\C(=O)N[C@@H](CCCNC(=N)N)C(=O)N[C@@H](CCCNC(=N)N)C(=O)N[C@@H](CCCNC(=N)N)C(N)=O.O=C(O)C(F)(F)F.O=C(O)C(F)(F)F.O=C(O)C(F)(F)F [Compound A3-Sp2-O], which “Transfection results (percentage of transfected cells), HeLa” value is on record?
A: Its value is “++ (percentages of transfection between 25-50%)”.

Q: How did the “Transfection results (percentage of transfected cells), HeLa” value turn out when CCCCCCCCCCCCCCCCCCCC(=O)NCCCN(CCCNC(=O)CCCCCCCCCCCCCCCCCCC)C(=O)/C=C\C(=O)N[C@@H](CCCNC(=N)N)C(=O)N[C@@H](CCCNC(=N)N)C(=O)N[C@@H](CCCNC(=N)N)C(N)=O.O=C(O)C(F)(F)F.O=C(O)C(F)(F)F.O=C(O)C(F)(F)F [Compound A3-Sp4-A] was run?
A: The value was “+ (percentages of transfection between 5-25%)”.

Q: How did the “Transfection results (percentage of transfected cells), HeLa” value turn out when CCCCCCCCCCCCCCCCCCCC(=O)NCCN(CCNC(=O)CCCCCCCCCCCCCCCCCCC)C(=O)CCC(=O)N[C@@H](CCCNC(=N)N)C(=O)N[C@@H](CCCNC(=N)N)C(=O)N[C@@H](CCCNC(=N)N)C(N)=O.O=C(O)C(F)(F)F.O=C(O)C(F)(F)F.O=C(O)C(F)(F)F [Compound A3-Sp1-A] was run?
A: Its value is “+ (percentages of transfection between 5-25%)”.

Q: For CCCCCCCCCCCCCCCCCCCCCCCC(=O)NCCN(CCNC(=O)CCCCCCCCCCCCCCCCCCCCCCC)C(=O)/C=C\C(=O)N[C@@H](CCCNC(=N)N)C(=O)N[C@@H](CCCNC(=N)N)C(=O)N[C@@H](CCCNC(=N)N)C(N)=O.O=C(O)C(F)(F)F.O=C(O)C(F)(F)F.O=C(O)C(F)(F)F [Compound A3-Sp2-L], which “Transfection results (percentage of transfected cells), HeLa” value is on record?
A: Its value is “+ (percentages of transfection between 5-25%)”.

Q: With CCCCCCCCCCCCCCCC(=O)NCCCN(CCCNC(=O)CCCCCCCCCCCCCCC)C(=O)CCC(=O)N[C@@H](CCCNC(=N)N)C(N)=O.O=C(O)C(F)(F)F [Compound A1-Sp3-P] as the molecule, how does the “Transfection results (percentage of transfected cells), HeLa” value read?
A: Its value is “+ (percentages of transfection between 5-25%)”.

Q: Which “Transfection results (percentage of transfected cells), HeLa” value does the source give for CCCCCCCCCCCCCCCCCC(=O)NCCCN(CCCNC(=O)CCCCCCCCCCCCCCCCC)C(=O)/C=C\C(=O)N[C@@H](CCCNC(=N)N)C(N)=O.O=C(O)C(F)(F)F [Compound A1-Sp4-S] here?
A: The value was “+ (percentages of transfection between 5-25%)”.

Q: With CCCCCCCCCCCCCCCCCCCCCCCC(=O)NCCCN(CCCNC(=O)CCCCCCCCCCCCCCCCCCCCCCC)C(=O)/C=C\C(=O)N[C@@H](CCCNC(=N)N)C(=O)N[C@@H](CCCNC(=N)N)C(N)=O.O=C(O)C(F)(F)F.O=C(O)C(F)(F)F [Compound A2-Sp4-L] as the molecule, how does the “Transfection results (percentage of transfected cells), HeLa” value read?
A: The value was “+ (percentages of transfection between 5-25%)”.

Q: How did the “Transfection results (percentage of transfected cells), HeLa” value turn out when CCCCCCCCCCCCCCCC(=O)NCCCN(CCCNC(=O)CCCCCCCCCCCCCCC)C(=O)/C=C\C(=O)N[C@@H](CCCNC(=N)N)C(=O)N[C@@H](CCCNC(=N)N)C(=O)N[C@@H](CCCNC(=N)N)C(N)=O.O=C(O)C(F)(F)F.O=C(O)C(F)(F)F.O=C(O)C(F)(F)F [Compound A3-Sp4-P] was run?
A: Its value is “+ (percentages of transfection between 5-25%)”.

Reference: patent publication US8759104B2, “Cationic lipids” (The University Court of the University of Edinburgh, priority 2010, dated 2014)
